Data published in patent publication US11554122B2, “Fused pentacyclic imidazole derivatives as modulators of TNF activity” (UCB Biopharma SRL, priority 2018, dated 2023).

Biological target: T1, TNFα (Homo sapiens, UniProt P01375)
T1 construct: a human whole blood assay driven by endogenously expressed TNFα; endogenous in cells; host or cells: EDTA anticoagulated human whole blood, stimulated with 1 ug/ml zymosan
Assay: TNF human whole blood screening assay: CD11b expression on granulocytes after zymosan challenge
Type: cell-based
Details: whole blood IC50 multiplied by the unbound fraction (Fu) in human blood; read-out: free IC50 in the human whole blood assay
Procedure: Furthermore, the compounds in accordance with the present invention are potent inhibitors of CD11b expressed on granulocytes in human blood cells, when tested in the human whole blood assay as described herein.
TNF Human Whole Blood Screening Assay
The compounds according to the Examples were assessed in a human whole blood assay driven by endogenously expressed TNFα by measuring the expression of CD11b on granulocytes in human whole blood challenged with zymosan. Zymosan binds to TLR2 and other receptors, leading to NF-κB signalling which in turn induces the production of pro-inflammatory mediators, including TNFα. In turn, TNFα can stimulate the expression of CD11b on granulocytes.
Compounds were diluted from 10 mM DMSO stocks (final assay concentration of 0.2% DMSO) to generate a 10-point 2.5-fold serial dilution curve (for example, 20,000 nM to 5.3 nM final assay concentration). Diluted compound was preincubated with EDTA anticoagulated human whole blood for 60 minutes at 37° C. prior to stimulation with 1 ug/ml zymosan. After 3 hours stimulation with zymosan, the whole blood was stained with fluorescent labelled anti CD45 and anti CD11b antibodies. The samples were fixed and red blood cells lysed before analysis with a FACS CANTO II.
FACS (Fluoresceence Activated Cell Sorting) analysis was performed with FloJo software. SSC-A (Side Scatter Area of peak) and CD45 signal was used to identify granulocytes, followed by SSC-A and SSC-W (Side Scatter Width of peak) to select single cells. MESF (Molecules of Equivalent Soluble Fluorochrome) beads were used to calibrate the CD11b signal on single cell granulocytes. Activation of CD11b was inhibited in a dose dependent manner by the TNFα inhibitor.
Percentage inhibition of compounds was calculated against TNFα containing DMSO alone (control) and maximum inhibition generated with excess blocking anti-TNFα monoclonal antibody. An inhibition curve was constructed in ActivityBase using a 4 parameter logistic model (XLfit™). The point of inflexion between the fitted minimum and maximum effects of the inhibitor gives the IC50 value.
A calculated IC50 for the free compound (herein referred to as “free IC50”) that takes into account the extent of fraction unbound in blood was determined by multiplying the IC50 generated from the first assay (human whole blood screening assay) by the unbound fraction (Fu), generated from the second assay (human blood binding assay).

T1 sequence (P01375 77-233 limits assumed): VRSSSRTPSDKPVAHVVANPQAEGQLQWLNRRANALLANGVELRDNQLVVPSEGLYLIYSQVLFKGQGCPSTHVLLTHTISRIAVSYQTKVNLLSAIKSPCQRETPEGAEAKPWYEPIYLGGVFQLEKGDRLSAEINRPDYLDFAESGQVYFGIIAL

IC50 [nM] | Structure (SMILES)
< 4 | CN1C(=O)c2cccc(OC(F)F)c2[C@H]2C[C@@H]1c1nc3ccc(-c4cnc([C@]5(C#N)C[C@@](C)(O)C5)nc4)cc3n12 [Example 6, 1-[5-[(1R,11R)-18-(difluoromethoxy)-12-methyl-13-oxo-2,9,12-triazapentacyclo[9.8.1.02,10.03,8.014,19]icosa-3(8),4,6,9,14(19),15,17-heptaen-5-yl]pyrimidin-2-yl]-3-hydroxy-3-methylcyclobutane-1-carbonitrile]
~5 | C[C@]1(C#N)C[C@](O)(c2ncc(-c3ccc4nc5n(c4c3)[C@@H]3C[C@H]5NC(=O)c4cccc(OC(F)F)c43)cc2F)C1 [Example 5, 3-[5-[(1R,11R)-18-(difluoromethoxy)-13-oxo-2,9,12-triazapentacyclo[9.8.1.02,10.03,8.014,19]icosa-3,5,7,9,14(19),15,17-heptaen-5-yl]-3-fluoropyridin-2-yl]-3-hydroxy-1-methylcyclobutane-1-carbonitrile]
~12 | C[C@]1(C#N)C[C@](O)(c2ncc(-c3ccc4nc5n(c4c3)[C@@H]3C[C@H]5NC(=O)c4cccc(OC(F)F)c43)cn2)C1 [Example 2, 3-[5-[(1R,11R)-18-(difluoromethoxy)-13-oxo-2,9,12-triazapentacyclo[9.8.1.02,10.03,8.014,19]icosa-3(8),4,6,9,14(19),15,17-heptaen-5-yl]pyrimidin-2-yl]-3-hydroxy-1-methylcyclobutane-1-carbonitrile]
< 4 | CN1C(=O)c2cccc(OC(F)F)c2[C@H]2C[C@@H]1c1nc3ccc(-c4cnc([C@]5(C#N)C[C@@](C)(O)C5)c(F)c4)cc3n12 [Example 7, 1-[5-[(1R,11R)-18-(difluoromethoxy)-12-methyl-13-oxo-2,9,12-triazapentacyclo[9.8.1.02,10.03,8.014,19]icosa-3(8),4,6,9,14(19),15,17-heptaen-5-yl]-3-fluoropyridin-2-yl]-3-hydroxy-3-methylcyclobutane-1-carbonitrile]

More lines, now with the values behind:

Structure (SMILES) | IC50 [nM]
C[C@]1(C#N)C[C@](O)(c2ncc(-c3cc4c(cc3F)nc3n4[C@@H]4C[C@H]3NC(=O)c3cccc(OC(F)F)c34)cn2)C1 [Example 3, 3-[5-[(1R,11R)-18-(difluoromethoxy)-6-fluoro-13-oxo-2,9,12-triazapentacyclo[9.8.1.02,10.03,8.014,19]icosa-3(8),4,6,9,14(19),15,17-heptaen-5-yl]pyrimidin-2-yl]-3-hydroxy-1-methylcyclobutane-1-carbonitrile] | ~6
CN1C(=O)c2cccc(OC(F)F)c2[C@H]2C[C@@H]1c1nc3ccc(-c4cnc([C@]5(O)C[C@@](C)(C#N)C5)c(F)c4)cc3n12 [Example 4, 3-[5-[(1R,11R)-18-(difluoromethoxy)-12-methyl-13-oxo-2,9,12-triazapentacyclo[9.8.1.02,10.03,8.014,19]icosa-3,5,7,9,14(19),15,17-heptaen-5-yl]-3-fluoropyridin-2-yl]-3-hydroxy-1-methylcyclobutane-1-carbonitrile] | < 4
[2H]C([2H])([2H])N1C(=O)c2cccc(OC(F)F)c2[C@H]2C[C@@H]1c1nc3ccc(-c4cnc([C@]5(O)C[C@@](C)(C#N)C5)nc4)cc3n12 [Example 1, 3-[5-[(1R,11R)-18-(difluoromethoxy)-13-oxo-12-(trideuteriomethyl)-2,9,12-triazapentacyclo[9.8.1.02,10.03,8.014,19]icosa-3(8),4,6,9,14(19),15,17-heptaen-5-yl]pyrimidin-2-yl]-3-hydroxy-1-methylcyclobutane-1-carbonitrile] | ~6
